The results in this text go back to US9212202B2, “Methods of peptide modification” (Lytix Biopharma AS, priority 2007, dated 2015).

Converted amounts (≈) assume the structure as drawn. Peptide text beside a SMILES is read from it. * marks the point of attachment. NHPhenethyl = c1ccc(CCN*)cc1; NHBn = c1ccc(CN*)cc1

In data set [1] the test system is E. coli. The data set can be described thus: Minimal inhibitory concentration. It is filed as cell-based. As to the method: (§1) A further compound was prepared according to the methods of the invention and Minimal Inhibitory Concentration (MIC) values obtained against a range of bacteria. • H-Arg-Tbt-Arg-NH(CH2)2 (2-Br-phenyl) Saponification of Boc-Arg-Tbt-Arg-OMe
(§2) Minimal inhibitory concentration (mg/l),

The test system of data set [2] is MRSA. The data set can be described thus: Minimal inhibitory concentration. It is filed as cell-based. The protocol: as §1, §2
Data set [3] has as its system S. aureus. The data set can be described thus: Minimal inhibitory concentration. The format is cell-based. The protocol: as §1, §2
The test system of data set [4] is Str. pyogenes. The data set can be described thus: Minimal inhibitory concentration. The format is cell-based. As to the method:
as §1, §2

Data set [5] concerns the target trypsin (Bos taurus, UniProt P00760). The data set can be described thus: in vitro. Particulars: bovine, isolated trypsin from bovine pancreas, pH 8.6.
Experimental: Essentially salt-free trypsin from bovine pancreas, (T8802, 10000-15000 BAEE units/mg protein) was supplied by Sigma-Aldrich.
Each peptide was dissolved in a 0.1 M NH4HCO3 buffer (pH 6.5) to yield a final peptide concentration of 1 mg/ml. A trypsin solution was prepared by dissolving 1 mg of trypsin in 50 ml 0.1 M NH4HCO3 buffer (pH 8.2). For the stability determination, 250 μl freshly made trypsin solution and 250 μl peptide solution were incubated in 2 ml of 0.1 M NH4HCO3 buffer (pH 8.6) at 37° C. on a rocking table. Aliquots of 0.5 ml were sampled at different time intervals, diluted with 0.5 ml water:acetonitrile (60:40 v/v) containing 1% TFA and analysed by RP-HPLC as described above. Samples without trypsin addition taken at 0 h and after 20 h at 37° C. were used as negative controls. […] The plotted kinetic profiles were made on GraphPad Prism 4c.
The identity of the metabolites from the tryptic degradation was either determined by preparative trypsin degradation of the peptide, purification and structural determination by ESMS, or by chemical synthesis of authentic reference samples.

Chain of trypsin (P00760 24-246): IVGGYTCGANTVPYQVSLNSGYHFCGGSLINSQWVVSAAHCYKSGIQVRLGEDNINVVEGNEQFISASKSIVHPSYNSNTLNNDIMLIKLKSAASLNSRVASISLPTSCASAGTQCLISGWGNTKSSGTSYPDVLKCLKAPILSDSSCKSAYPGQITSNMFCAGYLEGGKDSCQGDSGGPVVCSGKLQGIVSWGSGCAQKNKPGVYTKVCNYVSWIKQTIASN

`CC(C)(C)c1cc(C(C)(C)C)c2[nH]c(C(C)(C)C)c(C[C@H](NC(=O)[C@@H](N)CCCNC(=N)N)C(=O)N[C@@H](CCCNC(=N)N)C(=O)NCCc3ccccc3Br)c2c1` [—(CH2)2-(2-BrPh), H-Arg-Tbt-Arg-NH(CH2)2 (2-Br-phenyl)]: the Minimal inhibitory concentration in data set [1] amounted to 6 µg/mL (≈ 6.92 µM); in data set [2] it was 3 µg/mL (≈ 3.46 µM); in data set [3], 3 µg/mL (≈ 3.46 µM); in data set [4], 3 µg/mL (≈ 3.46 µM).

For orientation: half-life means the time needed for the level to fall by half in the phase considered. `N=C(N)NCCC[C@H](NC(=O)[C@H](Cc1c[nH]c2ccccc12)NC(=O)[C@@H](N)CCCNC(=N)N)C(=O)NCCc1ccccc1` [F] (H-Arg-Trp-Arg-NHPhenethyl): the half-life at 0.1 mg/ml in data set [5] is 7 h.

Consider `N=C(N)NCCC[C@H](NC(=O)[C@H](Cc1c[nH]c2ccccc12)NC(=O)[C@@H](N)CCCNC(=N)N)C(=O)NCc1ccccc1` [E] (H-Arg-Trp-Arg-NHBn), for which the half-life at 0.1 mg/ml in data set [5] is 1 h.
